Assay [1] concerns cotton plants. As to the kind of experiment: Cotton behavior under freeze conditions (dead plants). In kind it is in vivo. The following applies: 4 h at −5° C. in BBCH growth stage 10, counted three days after freeze exposure. As for the experimental part: Cotton seeds were treated either with pyraclostrobin (20 g of active substance per 100 kg seed) or with azoxystrobin (19 g of active substance per 100 kg seed). The treatment was effected by means of a HEGE 11 seed treatment apparatus. After the treatment, the seeds were sown into pots. When the cotton plants were in the BBCH growth stage 10, they were exposed for 4 h to −5° C. Three days after the freeze exposure, the number of dead plants was counted. The results are compiled as mean percentage values (relative to 100% of living plants before exposure to freezing temperatures) in table 8 below.

The test system of assay [2] is corn plants. As to the kind of experiment: Corn behavior under freeze conditions (dead plants). The following applies: seed treatment 5 g a.s./100 kg seed, 3 h at −5 ° C. ten or eleven days after sowing, counted one day after freeze exposure. In kind it is in vivo. As for the experimental part:
Exposure times and temperatures were selected to show sufficient damage to the plants so that treatment differences could be observed.
Corn seeds were treated with pyraclostrobin (5 g of active substance per 100 kg seed) or with azoxystrobin (5 g of active substance per 100 kg seed). The treatment was effected by means of a HEGE 11 seed treatment apparatus. One day after the treatment, the seeds were sown into pots with sandy loam soil. One part of the corn plants was exposed for 3 h to −5 ° C. ten days after sowing, and the other plants eleven days after sowing. In each case, the number of dead plants was counted one day after the freeze exposure. The results are compiled as mean percentage values (relative to 100% of living plants before exposure to freezing temperatures) in table 3 below.

For assay [3], the system named is canola plants. In words: Canola behavior under freeze conditions (dead plants). In kind it is in vivo, canola (oilseed rape). The following applies: seed treatment 10 g a.s./100 kg seed, 1 h at −10° C. in BBCH growth stage 10, counted three days after freeze exposure. As for the experimental part:
Canola (oilseed rape) seeds were treated either with pyraclostrobin (10 g of active substance per 100 kg seed) or with trifloxystrobin (10 g of active substance per 100 kg seed). The treatment was effected by means of a HEGE 11 seed treatment apparatus. After the treatment, the seeds were sown into pots. When the canola plants were in the BBCH growth stage 10, they were exposed for 1 h to −10° C. Three days after the freeze exposure, the number of dead plants was counted. The results are compiled as mean percentage values (relative to 100% of living plants before exposure to freezing temperatures) in table 9 below.

The test system of assay [4] is sugar beet plants. As to the kind of experiment: Emergence behavior of sugar beet at cold temperature. The following applies: seed treatment 30 g a.s./100 kg seed, kept at 10° C. In kind it is in vivo. As for the experimental part:
The emergence behavior of sugar beet plants the seeds of which had been treated with pyraclostrobin and which were exposed after sowing to cold temperatures was studied following the guidelines for germination testing according to the Association of Official Seed Analysts (AOSA, 2005). For this purpose, sugar beet seeds were treated with pyraclostrobin (30 g active substance per 100 kg seed). The treatment was effected by means of a HEGE 11 seed treatment apparatus. After the treatment, the seeds were sown into pots with a sandy loam soil/sand mixture (2:1 v/v; 2 seeds per pot). The pots were placed in an incubator and kept at 10° C. 13, 15, 16, 17 and 20 days after sowing (=DAP=days after planting), the number of seeds which had given rise to plants was counted. The results are compiled as mean values in table 4. A value of 100% means that all sown seeds have given rise to plants.

The subject of assay [5] is corn plants. As to the kind of experiment: Corn field trial under frost conditions, Beaver Crossing. In kind it is in vivo. The following applies: 5 g a.s./100 kg seed in addition to Maxim XL and Apron XL. As for the experimental part: For avoiding fungal stress which could give misleading test results especially under cold temperature, all corn seeds were treated with Maxim XL (fludioxonil; 3.5 g of active substance per 100 kg seed) and Apron XL (mefenoxam; 1 g of active substance per 100 kg seed). A part of the seeds was additionally treated with pyraclostrobin (5 g of active substance per 100 kg seed). The treatment was effected by means of a HEGE 11 seed treatment apparatus. The seeds were sown every 5 days starting from Sep. 6, 2007 in 1.75″ deep on clean tilled soil in Beaver Crossing, NE, USA. Frost occurred on Oct. 22/23, 2007 (−0.1° C. for 1 h), Oct. 23/24 (−0.1° C. for 1 h), 2007 and Oct. 24/25, 2007 (0° C. for 1 h, −1.1° C. for 1.5 h and 0° C. for 1 h). 47 days after sowing (=DAP; days after planting), the number emerged plants and their height was assessed. 50 DAP, the extent of dead tissue was assessed. The results are compiled as mean values in table 11 below.

Assay [6] deals with corn plants. As to the kind of experiment: Plant height (stem length) and root length of corn, cold and variable temperatures. In kind it is in vivo. The following applies: seed treatment 5 g a.s./100 kg seed, cold/variable temperature regimen of example 1, 23 days after sowing. As for the experimental part:
(§1) The emergence behavior of corn plants the seeds of which had been treated with pyraclostrobin and which were exposed after sowing to cold and variable temperatures was studied following the guidelines for germination testing according to the Association of Official Seed Analysts (AOSA, 2005). For this purpose, corn seeds were treated with pyraclostrobin (5 g active substance per 100 kg seed). The treatment was effected by means of a HEGE 11 seed treatment apparatus. After the treatment, the seeds were sown into sand trays (2×100 seeds per tray). The sand trays were placed in an incubator and submitted to following temperature regimen: 7 days at 10° C.-4 days at 24° C.-then 10 ° C. 9, 10 and 29 days after sowing (=DAP=days after planting), the number of seeds which had given rise to plants was counted. The results are compiled as mean values in table 1. A value of 100% means that all sown seeds have given rise to plants.
23 days after sowing (see example 1) the stem length (=length from the soil line to the meristem) and the root length of the plants was measured. The results are compiled as mean values in table 2 below.

Assay [7] concerns corn plants. In words: Corn field trial, Burrus Seed Farms. The following applies: 5 g a.s./100 kg seed in addition to Maxim XL and Apron XL, 35 DAP. In kind it is in vivo. As for the experimental part: For avoiding fungal stress which could give misleading test results especially under cold temperature, all corn seeds were treated with Maxim XL (fludioxonil; 3.5 g of active substance per 100 kg seed) and Apron XL (mefenoxam; 1 g of active substance per 100 kg seed). A part of the seeds was additionally treated with pyraclostrobin (5 g of active substance per 100 kg seed). The treatment was effected by means of a HEGE 11 seed treatment apparatus. On Sep. 26, 2007, the seeds were sown in Burrus Seed Farms, Illinois, USA. 35 days after sowing (=DAP; days after planting), the number of intact, injured and dead plants was assessed. The results are compiled as mean percentage values (relative to total number of plants=100%) in table 10 below.

Assay [8] concerns soybean plants. In words: Soybean behavior under freeze conditions (dead plants). In kind it is in vivo. The following applies: seed treatment 5 g a.s./100 kg seed, 3.5 h at −7° C. in BBCH growth stage 9, counted three days after freeze exposure. As for the experimental part:
Soybean seeds were treated with pyraclostrobin (5 g of active substance per 100 kg seed). The treatment was effected by means of a HEGE 11 seed treatment apparatus. After the treatment, the seeds were sown into pots. When the soybean plants were in the BBCH growth stage 9, they were exposed for 3.5 h to −7° C. Three days after the freeze exposure, the number of dead plants was counted. The results are compiled as mean percentage values (relative to 100% of living plants before exposure to freezing temperatures) in table 6 below.

For assay [9], the system named is sugar beet plants. As to the kind of experiment: Sugar beet behavior under freeze conditions (dead plants). In kind it is in vivo. The following applies: seed treatment 30 g a.s./100 kg seed. As for the experimental part: Sugar beet seeds were treated with pyraclostrobin (30 g of active substance per 100 kg seed). The treatment was effected by means of a HEGE 11 seed treatment apparatus. After the treatment, the seeds were sown into pots with a sandy loam soil/sand mixture (2:1 v/v; 2 seeds per pot). One part of the sugar beet plants was exposed for 3 h to −5° C. when they were in the BBCH growth stage 10, and the other plants when they were in the BBCH growth stage 11. In each case, the number of dead plants was counted three days after the freeze exposure. The results are compiled as mean percentage values (relative to 100% of living plants before exposure to freezing temperatures) in table 5 below.

The subject of assay [10] is spring wheat plants. In words: Spring wheat behavior under freeze conditions (dead plants). In kind it is in vivo. The following applies: seed treatment 5 g a.s./100 kg seed, 2 h at −10° C. in BBCH growth stage 11, counted three days after freeze exposure. As for the experimental part: Spring wheat seeds were treated with pyraclostrobin (5 g of active substance per 100 kg seed). The treatment was effected by means of a HEGE 11 seed treatment apparatus. After the treatment, the seeds were sown into pots. When the spring wheat plants were in the BBCH growth stage 11, they were exposed for 2 h to −10° C. Three days after the freeze exposure, the number of dead plants was counted. The results are compiled as mean percentage values (relative to 100% of living plants before exposure to freezing temperatures) in table 7 below.

The test system of assay [11] is corn plants. In words: Emergence behavior of corn after seed treatment, cold and variable temperatures. In kind it is in vivo. The following applies: seed treatment 5 g a.s./100 kg seed, 7 days at 10° C., 4 days at 24° C., then 10° C. As for the experimental part: as §1

As to `CO/C=C(/C(=O)OC)c1ccccc1Oc1cc(Oc2ccccc2C#N)ncn1` [azoxystrobin], the Dead plants in [1] (seed treatment 19 g a.s./100 kg seed) came to 24%; in [2] it was 31%.

As to `COC(=O)N(OC)c1ccccc1COc1ccn(-c2ccc(Cl)cc2)n1` [pyraclostrobin], the Dead plants in assay [3] is reported as 40%; in assay [7], 29%; in assay [8] it was 18%; in assay [9] (3 h at −5° C. in BBCH growth stage 10, counted three days after freeze exposure), 12%; in assay [9] (3 h at −5° C. in BBCH growth stage 11, counted three days after freeze exposure), 17%; in assay [10], 18%. The Dead plants in assay [1] (seed treatment 20 g a.s./100 kg seed) is 17%; in assay [2], 36%. Besides, the Emergence in assay [4] (13 DAP) is 23%; in assay [4] (15 DAP), 45%; in assay [4] (16 DAP), 57%; in assay [4] (17 DAP), 73%; in assay [4] (20 DAP), 90%; in [11] (9 DAP) it was 81%. Also, the Emergence came out at 97% in assay [11] (10 DAP) and 100% in [11] (29 DAP). The “No. of plants emerged” value in [5] (47 DAP) was 19. In assay [5] (47 DAP), the Plant height stood at 1.25 inches. Also, the Dead tissue in [5] (50 DAP) is 63%. For the same compound, the Root length in [6] amounted to 13.3 cm. Also, the Stem length in assay [6] came out at 11.2 cm. The same compound showed a Plants with injury in [7] of 35%. The “Plants with no injury” value in [7] was 34%.

For the compound `CON=C(C(=O)OC)c1ccccc1CON=C(C)c1cccc(C(F)(F)F)c1` [trifloxystrobin], the Dead plants in assay [3] is listed as 42%.

These data come from patent US20100173900A1, “Strobilurins for Increasing the Resistance of Plants to Abiotic Stress” (BASF SE, priority 2008, published 2010).
